Measured values published in patent US20090257979A1, “Novel Inhibitors of Hepatitis C Virus Replication” (INTERMUNE, INC., priority 2008, published 2009).

Columns and labels:
[1] = biological target: T1, NS5B polymerase protein (Hepatitis C virus genotype 1a, UniProt P27958); assay: biochemical; details: pre-incubated 37° C. 30 minutes; RdRp reaction 90 minutes at 37° C.; read-out: HCV NS5B inhibition EC50
T1 construct: pre-incubated with the RNA template and NS5B polymerase protein; Replizyme
Protocol: The compounds were tested in the Replizyme HCV heterotemplate radioactive RNA-dependent RNA-polymerase (RdRp) assay. The test compounds were pre-incubated with the RNA template and NS5B polymerase protein at 37° C. for 30 minutes. The RdRp reaction was initiated with the addition of the NTPs to the buffer-NS5B-compound mix, and was allowed to proceed for 90 minutes at 37° C. Control reactions included: no enzyme, 5% DMSO (test compound solvent), no compound/solvent, Cordycepin-TP and HCV-796 (IC50 values used as a reference inhibition). Radioactive products were collected by applying the stopped reaction to DE-81 paper, air dried prior to washing with buffer comprising NaH2PO4 and sodium pyrophosphate to remove unincorporated ^32P-GTP in the NTP mix, and rinsed with dH2O followed by 100% ethanol. The DE-81 paper was air dried, squares cut out and placed in scintillation tubes for counting.

[2] = tested on: HCV Replicon; assay: HCV Replicon inhibition; assay type: cell-based; details: Hepatitis C virus

T1 sequence (P27958 2421-3011): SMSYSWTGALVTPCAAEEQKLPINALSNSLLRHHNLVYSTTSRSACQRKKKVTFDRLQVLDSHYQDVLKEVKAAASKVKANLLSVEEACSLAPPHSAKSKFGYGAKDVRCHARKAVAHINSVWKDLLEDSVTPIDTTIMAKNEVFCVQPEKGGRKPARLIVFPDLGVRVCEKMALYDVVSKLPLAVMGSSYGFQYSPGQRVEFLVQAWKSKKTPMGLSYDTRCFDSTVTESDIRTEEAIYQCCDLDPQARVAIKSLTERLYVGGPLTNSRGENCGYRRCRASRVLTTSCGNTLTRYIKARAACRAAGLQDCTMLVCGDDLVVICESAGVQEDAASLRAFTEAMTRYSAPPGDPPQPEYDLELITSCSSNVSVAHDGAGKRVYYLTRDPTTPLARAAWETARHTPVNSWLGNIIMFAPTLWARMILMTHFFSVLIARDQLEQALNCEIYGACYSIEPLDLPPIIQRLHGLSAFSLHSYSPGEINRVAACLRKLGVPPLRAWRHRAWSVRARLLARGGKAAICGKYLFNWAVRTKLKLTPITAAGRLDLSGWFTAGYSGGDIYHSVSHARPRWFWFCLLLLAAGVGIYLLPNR

| Compound | EC50 [1] [nM] | EC50 [2] [nM] |
| --- | --- | --- |
| CC(C)CCc1c(O)c(C2=Nc3ccccc3S(=O)(=O)N2)c(O)c2ccccc12 [Compound 104, 1,3-dihydroxy-2-(1,1-dioxo-2H-(1,2,4)-benzothiadiazin-3-yl)-4-(3-methylbutyl)naphthalene] | 100 to 1000 | 1000 to 10000 |
| O=S1(=O)NC(c2c(O)c(Br)c3ccccc3c2O)=Nc2ccccc21 [Compound 105, 4-bromo-1,3-dihydroxy-2-(1,1-dioxo-2H-(1,2,4)-benzothiadiazin-3-yl)naphthalene] | 1000 to 10000 | 1000 to 10000 |
| CC(C)CCn1cc(C2=NS(=O)(=O)c3ccccc3N2)c2ccccc21 [Compound 201] | 10000 to 50000 | 10000 to 50000 |
| CC(C)CCn1nc(C2=NS(=O)(=O)c3ccccc3N2)c2ccccc21 [Compound 202] | 10000 to 50000 | 10000 to 50000 |
| CC(C)CCn1cc(C2=NS(=O)(=O)c3cc(NS(C)(=O)=O)ccc3N2)c2ccccc21 [Compound 203] | 100 to 1000 | > 50000 |
| CC(C)CCn1nc(C2=NS(=O)(=O)c3cc(NS(C)(=O)=O)ccc3N2)c2ccccc21 [Compound 204] | 100 to 1000 | 10000 to 50000 |
| COc1cccc2c1c(C1=NS(=O)(=O)c3cc(NS(C)(=O)=O)ccc3N1)cn2CCC(C)C [Compound 205] | 10000 to 50000 | 10000 to 50000 |
| COc1ccc2c(C3=NS(=O)(=O)c4cc(NS(C)(=O)=O)ccc4N3)cn(CCC(C)C)c2c1 [Compound 206] | 1000 to 10000 | > 50000 |
| CC(C)CCn1cc(C2=NS(=O)(=O)c3cc(NS(C)(=O)=O)ccc3N2)c2cc(Cl)ccc21 [Compound 207] | 1000 to 10000 | > 50000 |
| CC(C)CCn1cc(C2=NS(=O)(=O)c3cc(NS(C)(=O)=O)ccc3N2)c2cccc(Cl)c21 [Compound 208] | 100 to 1000 | > 50000 |
| CC(C)CCn1cc(C2=NS(=O)(=O)c3cc(NS(C)(=O)=O)ccc3N2)c2c(O)cccc21 [Compound 209] | 100 to 1000 | > 50000 |
| CC(C)CCn1cc(C2=NS(=O)(=O)c3cc(NS(C)(=O)=O)ccc3N2)c2ccc(O)cc21 [Compound 210] | 100 to 1000 | 10000 to 50000 |
| CC(C)CCn1cc(C2=NS(=O)(=O)c3cc(NS(C)(=O)=O)ccc3N2)c2ccc(C(C)C)cc21 [Compound 211] | 1000 to 10000 | 10000 to 50000 |
| CC(C)CCn1cc(C2=NS(=O)(=O)c3cc(NS(C)(=O)=O)ccc3N2)c2cc(Br)ccc21 [Compound 212] | 1000 to 10000 | > 50000 |
| CC(C)CCC1(C)C(=O)C(C2=Nc3ccccc3S(=O)(=O)N2)=C(O)c2cccn21 (stereo not shown) [Compound 213] | < 100 | 10000 to 50000 |
| CC(C)CCC1(C)C(=O)C(C2=NS(=O)(=O)c3cc(NS(C)(=O)=O)ccc3N2)=C(O)c2cccn21 (stereo not shown) [Compound 214] | < 100 | 100 to 1000 |
| CC(C)CCC1(C)C(=O)C(C2=NS(=O)(=O)c3cc(NS(C)(=O)=O)ccc3N2)=C(O)c2nccn21 (stereo not shown) [Compound 215] | 1000 to 10000 |  |
| CC(C)CCc1c2n(c(O)c(C3=NS(=O)(=O)c4cc(NS(C)(=O)=O)ccc4N3)c1=O)CCCC2 [Compound 220] | < 100 | 100 to 1000 |
| CC(C)CCn1c(=O)c(C2=NS(=O)(=O)c3ccccc3N2)c(O)n2ccnc12 [Compound 221, 6-(1,1-Dioxo-1,4-dihydro-1lambda*6*-benzo[1,2,4]thiadiazin-3-yl)-5-hydroxy-8-(3-methyl-butyl)-8H-imidazo[1,2-a]pyrimidin-7-one] | 100 to 1000 | > 50000 |

| Compound | EC50 [1] [nM] | EC50 [2] [nM] |
| --- | --- | --- |
| CC(C)CCn1c(=O)c(C2=NS(=O)(=O)c3cc(NS(C)(=O)=O)ccc3N2)c(O)n2ccnc12 [Compound 222, N-{3-[5-Hydroxy-8-(3-methyl-butyl)-7-oxo-7,8-dihydro-imidazo[1,2-a]pyrimidin-6-yl]-1,1-dioxo-1,4-dihydro-1lambda*6*-benzo[1,2,4]thiadiazin-7-yl}-methanesulfonamide] | < 100 | 100 to 1000 |
| CC(C)CCC1(C)C(=O)C(C2=NS(=O)(=O)c3cc(NS(C)(=O)=O)ccc3N2)=C(O)c2ccnn21 (stereo not shown) [Compound 223] | < 100 | 1000 to 10000 |
| CS(=O)(=O)Nc1ccc2c(c1)S(=O)(=O)N=C(c1cccc(C(F)(F)F)c1)N2 [Compound 224] | 10000 to 50000 | < 100 |
| CC(C)CCc1c(=O)c(C2=NS(=O)(=O)c3cc(NS(C)(=O)=O)ccc3N2)c(O)n2ccccc12 [Compound 225] | < 100 | < 100 |
| CC(C)CCc1c(=O)c(C2=NS(=O)(=O)c3cc(NS(=O)(=O)C4CC4)ccc3N2)c(O)n2ccccc12 [Compound 226] | < 100 | < 100 |
| CC(C)(C)CCc1c(=O)c(C2=NS(=O)(=O)c3cc(NS(C)(=O)=O)ccc3N2)c(O)n2ccccc12 [Compound 227] | < 100 | < 100 |
| CS(=O)(=O)Nc1ccc2c(c1)S(=O)(=O)N=C(c1c(O)n3ccccc3c(Cc3ccc(F)cc3)c1=O)N2 [Compound 228] | < 100 | < 100 |
| CC(C)CCn1c(=O)c(C2=NS(=O)(=O)c3cc(NS(C)(=O)=O)ccc3N2)c(O)n2nccc12 [Compound 229, N-{3-[7-Hydroxy-4-(3-methyl-butyl)-5-oxo-4,5-dihydro-pyrazolo[1,5-a]pyrimidin-6-yl]-1,1-dioxo-1,4-dihydro-1lambda*6*-benzo[1,2,4]thiadiazin-7-yl}-methanesulfonamide] | 100 to 1000 | < 100 |
| CS(=O)(=O)Nc1ccc2c(c1)S(=O)(=O)N=C(c1c(O)n3nccc3n(Cc3ccccc3)c1=O)N2 [Compound 230, N-[3-(4-Benzyl-7-hydroxy-5-oxo-4,5-dihydro-pyrazolo[1,5-a]pyrimidin-6-yl)-1,1-dioxo-1,4-dihydro-1lambda*6*-benzo[1,2,4]thiadiazin-7-yl]-methanesulfonamide] | 1000 to 10000 | < 100 |
| CS(=O)(=O)Nc1ccc2c(c1)S(=O)(=O)N=C(c1c(O)n3nccc3n(Cc3ccc(F)cc3)c1=O)N2 [Compound 231, N-{3-[4-(4-Fluoro-benzyl)-7-hydroxy-5-oxo-4,5-dihydro-pyrazolo[1,5-a]pyrimidin-6-yl]-1,1-dioxo-1,4-dihydro-1lambda*6*-benzo[1,2,4]thiadiazin-7-yl}-methanesulfonamide] | 10000 to 50000 | < 100 |
| CS(=O)(=O)Nc1ccc2c(c1)S(=O)(=O)N=C(c1c(O)n3nccc3n(CCc3ccc(F)cc3)c1=O)N2 [Compound 232, N-(3-{4-[2-(4-Fluoro-phenyl)-ethyl]-7-hydroxy-5-oxo-4,5-dihydro-pyrazolo[1,5-a]pyrimidin-6-yl}-1,1-dioxo-1,4-dihydro-1lambda*6*-benzo[1,2,4]thiadiazin-7-yl)-methanesulfonamide] | > 50000 | < 100 |
| Cc1cc2n(CCC(C)C)c(=O)c(C3=NS(=O)(=O)c4cc(NS(C)(=O)=O)ccc4N3)c(O)n2n1 [Compound 233, N-{3-[7-Hydroxy-2-methyl-4-(3-methyl-butyl)-5-oxo-4,5-dihydro-pyrazolo[1,5-a]pyrimidin-6-yl]-1,1-dioxo-1,4-dihydro-1lambda*6*-benzo[1,2,4]thiadiazin-7-yl}-methanesulfonamide] | 1000 to 10000 | < 100 |
| CC(C)CCn1c(=O)c(C2=NS(=O)(=O)c3cc(NS(C)(=O)=O)ccc3N2)c(O)n2nc(C3CC3)cc12 [Compound 234, N-{3-[2-cyclopropyl-7-Hydroxy-4-(3-methyl-butyl)-5-oxo-4,5-dihydro-pyrazolo[1,5-a]pyrimidin-6-yl]-1,1-dioxo-1,4-dihydro-1lambda*6*-benzo[1,2,4]thiadiazin-7-yl}-methanesulfonamide] | 10000 to 50000 | < 100 |
| CC(C)CCn1c(=O)c(C2=NS(=O)(=O)c3cc(NS(C)(=O)=O)ccc3N2)c(O)n2ncnc12 [Compound 235, N-{3-[7-Hydroxy-4-(3-methyl-butyl)-5-oxo-4,5-dihydro-[1,2,4]triazolo[1,5-a]pyrimidin-6-yl]-1,1-dioxo-1,4-dihydro-1lambda*6*-benzo[1,2,4]thiadiazin-7-yl}-methanesulfonamide] | 1000 to 10000 | < 100 |
| CS(=O)(=O)Nc1ccc2c(c1)S(=O)(=O)N=C(c1c(O)n3ccccc3c(Cc3ccc(F)c(F)c3)c1=O)N2 [Compound 236, N-{3-[1-(3,4-Difluoro-benzyl)-4-hydroxy-2-oxo-2H-quinolizin-3-yl]-1,1-dioxo-1,4-dihydro-1lambda′6′-benzo[1,2,4]thiadiazin-7-yl}-methanesulfonamide] | < 100 | < 100 |
| CS(=O)(=O)Nc1ccc2c(c1)S(=O)(=O)N=C(c1c(O)n3ccccc3c(Cc3ccccc3F)c1=O)N2 [Compound 237, N-{3-[1-(2-Fluoro-benzyl)-4-hydroxy-2-oxo-2H-quinolizin-3-yl]-1,1-dioxo-1,4-dihydro-1lambda′6′-benzo[1,2,4]thiadiazin-7-yl}-methanesulfonamide] | < 100 | < 100 |
| CS(=O)(=O)Nc1ccc2c(c1)S(=O)(=O)N=C(c1c(O)n3ccccc3c(Cc3ccccc3)c1=O)N2 [Compound 238, N-[3-(1-Benzyl-4-hydroxy-2-oxo-2H-quinolizin-3-yl)-1,1-dioxo-1,4-dihydro-1lambda′6′-benzo[1,2,4]thiadiazin-7-yl]-methanesulfonamide] | < 100 | < 100 |
| Cc1cc2c(o1)c(C1=NS(=O)(=O)c3cc(NS(C)(=O)=O)ccc3N1)c(=O)n1ccccc21 [Compound 242] | 10000 to 50000 |  |
| CS(=O)(=O)Nc1ccc2c(c1)S(=O)(=O)N=C(c1c(O)n3ccccc3c(Cc3cccs3)c1=O)N2 [Compound 244] | < 100 |  |
